This data set is described as follows: solubility study in acetic acid and ionic liquid solvent. It counts as physicochemical. Particulars: ionic liquid solvent compared with acetic acid; FIG. 4. An excerpt: Two samplers were used for different purposes. A custom Titanium sampler was fabricated by Parr Instrument with a 2 μm Titanium filter included to separate solid and liquid phase at operating temperature for studying reaction kinetics. A custom Titanium sampler, larger in size but with no filter attached, was used for a solubility study. For the solubility study, the solvent and solute were loaded in the reactor and heated to the desired temperature, and maintained for a certain time to ensure an equilibrium was established. Afterwards, sufficient time was allowed for the solid to settle before a sample was taken. Solubility was compared to another study that tested terephthalic acid solubility in acetic acid.

SMILES strings stand for the structures.

As for `O=Cc1ccc(C(=O)O)cc1` [4-CBA, 4-carboxybenzaldehyde], the solubility entry is on record as “greater solubility in ionic liquid than in acetic acid”.
For `O=C(O)c1ccc(C(=O)O)cc1` [terephthalic acid, 1,4-benzenedicarboxylic acid] the value was “greater solubility in ionic liquid than in acetic acid”.

These data come from patent US9233905B2, “Oxidation and crystallization process for aromatic carboxylic acid production” (UOP LLC, priority 2012, dated 2016).
